In patent US20230226079A1, “METHODS AND COMPOSITIONS FOR TREATMENT OF SOLID TUMORS” (Saint Louis University, priority 2022, published 2023):

Tests used:
rat cardiac fibroblasts = conditions: cited from earlier work
c-Met and c-Myc = assay: Western blot of JHU029 tumor lysates; format: in vivo, nude mice; conditions: JHU029 xenograft tumors
Experimental: Lysates from control, BME or M-I treated cells and tumors were prepared using 2 SDS sample buffer and subjected to western blot analysis using specific antibodies to c-Met (1:500, Cell Signaling Technology, CST, Denvers, Mass., USA,), phospho-STAT3 (pSTAT3-Tyr-705) (1:1000, CST), total STAT3 (1:1000, CST), c-Myc (1:1000, CST), surviving (1:500, Santa Cruz Biotechnology, SBT, Dallas, Tex., USA) and cyclin D1 (1: 500, SBT). HRP conjugated anti-mouse or anti-rabbit secondary antibodies were purchased from Bio-Rad (Hercules, Calif., USA). The blot was reprobed with HRP conjugated -actin antibody (1:5000; SBT) to compare protein load in each lane. Densitometry analysis was done using Image J software (NIH, Bethesda, Md., USA).
JHU029 or Ca127 cells (1.5 10^6) containing 40% Matrigel were injected subcutaneously into the flank of BALB/c athymic nude mice (7-8 weeks old). When the palpable tumor was developed (>60 mm3), mice were divided into three groups randomly, 5 mice in each group. The control group was without any treatment. The BME group received 30% (v/v) BME through drinking water. M-I group received 30 mg/kg dose of M-I once in day, every day. Body weight was monitored, and tumor size was measured using a slide caliper and volume was calculated using the formula 1/2 L X W2. After animal sacrifice tumors were dissected out and snap frozen in liquid nitrogen for further analysis. […]

Ca127 cells = assay: Cytotoxicity assay (Cell Counting Kit-8) in Ca127 cells; format: cell-based; conditions: 48 h, treated for 48 h; read-out: IC50 dose, Ca127 cells
Excerpt: (§1) Normal oral keratinocytes (NOK) (kindly gifted by Dr. Karl Mugner, Tuffs University, Boston, MA, USA) were maintained in Keratinocyte SFM medium supplemented with EGF and bovine pituitary extract (GIBCO, Life Technologies, Berkeley, MO, USA) and 1% penicillin/ streptomycin. HNC cell line Ca127 was purchased from the ATCC. JHU029 (JHU-29) and JHU022 (JHU-22) cell lines were procured from the Johns Hopkins University (Baltimore, MD, USA). The Ca127 and JHU022 cells were maintained in Dulbecco's Modified Eagle Medium (DMEM), and JHU029 cells were in RPMI1640 (Sigma, St. Louis, Mo., USA) media supplemented with 10% FBS and 1% penicillin/ streptomycin (Sigma-Aldrich, St. Louis, Mo., USA) in a humidified CO2 incubator. The cell lines are routinely tested in the Inventors' laboratory to rule out mycoplasma contamination using a commercial Mycoplasma Detection kit (MycoAlert™, Lonza, Morrisville, N.C., USA). Ca127 cells are tongue origin and JHU022 and JHU029 cells are from larynx origin.
(§2) Bitter melon extract (BME) was prepared from the Chinese variety of young bitter melons (raw and green) as described previously (Rajamoorthi et al. (2013) PLoS ONE; 8, e78006). Briefly, BME was prepared by aqueous extraction from whole fruit without seeds using a household juicer at room temperature with subsequent centrifugation at 15000 g at 4 C for 30 min. BME was stored at −80 C for further analysis. […]

JHU029 cells = assay: Cytotoxicity assay (Cell Counting Kit-8) in JHU029 cells; format: cell-based; conditions: 48 h, treated for 48 h; read-out: IC50 dose, JHU029 cells
Excerpt: as §1, §2

Toxicity study, 5 days = format: in vivo; conditions: BME 30% in drinking water
Experimental: For toxicity study, C57B1/6 male mice were received either 30% BME through drinking water or 20 mg/kg of M-I twice a day or 30 mg/kg of M-I once a day by IP injection for 5 days. There were three mice in each group, including untreated control. Blood was collected on day 6, and serum was prepared. Serum parameters related to hepatotoxicity (total bilirubin, alanine transaminase, aspartate transaminase, and alkaline phosphatase) and nephrotoxicity (urea and creatinine) were performed.

JHU029 xenograft = assay: Tumorigenicity assay, JHU029 xenograft model; format: in vivo, nude mice
Experimental: JHU029 or Ca127 cells (1.5 10^6) containing 40% Matrigel were injected subcutaneously into the flank of BALB/c athymic nude mice (7-8 weeks old). When the palpable tumor was developed (>60 mm3), mice were divided into three groups randomly, 5 mice in each group. The control group was without any treatment. The BME group received 30% (v/v) BME through drinking water. M-I group received 30 mg/kg dose of M-I once in day, every day. Body weight was monitored, and tumor size was measured using a slide caliper and volume was calculated using the formula 1/2 L X W2. After animal sacrifice tumors were dissected out and snap frozen in liquid nitrogen for further analysis. All the animal experiments were carried out in accordance NIH guidelines, following a protocol approved (1017) by the Institutional Animal Care and Use Committee (IACUC) of Saint Louis University.

[1] = system: c-Myc, survivin and cyclin D1; assay: Western blot for STAT3 downstream molecules in HNC cells; format: cell-based; conditions: Ca127 and JHU029 cells
Experimental: The powder was dissolved in DMSO and added to the cells at different concentrations. Based on cytotoxicity data, Ca127 and JHU029 cells were treated with 10 ug/mL and JHU022 cells were treated with 20 ug/mL dose of M-I and incubated for 48 hr for further experiments. All the experiments were done at least in triplicate.

[2] = Pharmacokinetic study, single dose; format: in vivo, mice; conditions: for AUC (% Extrap): C57BI/6 male mice
Experimental: The pharmacokinetic (PK) study of M-I was performed in male C57B1/6 mice. A single dose of M-I (formulated at 2 mg/mL dissolved in 5% DMSO/95% of a 30% w:v Captisol solution) was administered either by intraperitoneal injection (IP group, n=3) or oral gavage (PO group, n=3). After dosing, 20 uL blood samples were collected into heparin pre-coated tubes at 5 min, 15 min, 30 min, 1 h, 2 h, 4 h, 6 h, 8 h and 24 h. Samples were centrifuged, and the plasma collected. M-I concentration was determined using liquid chromatography-mass spectrometry/mass spectrometry (LC-MS/MS) as described earlier (Fuerst et al. (2018) Chem.; 26, 4984-4995).

SMILES: CC(C)=CC(O)CC(C)[C@H]1CC[C@@]2(C)[C@@H]3[C@@H](O)C=C4[C@@H](CC[C@H](O)C4(C)C)[C@]3(C=O)CC[C@]12C (stereo partly drawn) [M-I, (3S, 7S, 8S, 9R, 10R, 13R, 14S, 17R) 3,7-dihydroxy-17-(4-hydroxy-6-methylhept-5-en-2-yl)-4,4,13,14-tetramethyl-2,3,7,8,10,11, 12,15, 16,17-decahydro-1H-cyclopenta[a]phenanthrene-9-carbaldehyde]
- high-glucose-induced cell proliferation and collagen synthesis (rat cardiac fibroblasts): inhibitory effects
- expression of c-Met and c-Myc in tumors versus untreated control (c-Met and c-Myc): significant reduction
- IC50 (Ca127 cells): < 8 µg/mL
- IC50 (JHU029 cells): < 8 µg/mL
- body weight in toxicity study (Toxicity study, 5 days; M-I 20 mg/kg twice a day or 30 mg/kg once a day IP, five days): stable
- serum total bilirubin, alanine transaminase, aspartate transaminase, alkaline phosphatase, creatinine, urea and glucose versus untreated control (Toxicity study, 5 days; blood on day six, M-I IP five days): comparable
- reduction of tumor growth, M-I compared with BME (JHU029 xenograft; M-I 30 mg/kg IP once a day versus BME 30% in drinking water): better effect
- tumor volume (JHU029 xenograft; M-I 30 mg/kg IP once a day, BME 30% in drinking water, sacrifice day 32): significantly reduced tumor volume
- sudden drop in body weight (JHU029 xenograft; three out of five mice, Day 20, M-I 30 mg/kg IP once a day, weight gained back): −10%
- STAT3 downstream molecules c-Myc, survivin and cyclin D1 [1]: significant inhibition
- adverse events after single dose, IP group ([2]; 20 mg/kg IP): No adverse events
- adverse events after single dose, oral group ([2]; 20 mg/kg PO, starting four hours post-dose, not resolved by 8 h, normal after twenty-four hours): loose stool
- AUC (% Extrap) ([2]; 20 mg/Kg IP): 0.33 ± 0.08%
- AUC (% Extrap) ([2]; 20 mg/Kg PO): 6.84 ± 1.5%
